# Source: patent US5919803A, “3-benzylamino-2-phenylpiperidines as neurokinin antagonists” (Glaxo Group Limited, priority 1995, dated 1999)
# Tested on: radiation-induced emesis in the ferret
# Experiment: radiation-induced emesis in the ferret
# Type: in vivo
# Details: 0.1 mg/kg s.c., compound administered 1.5 hours prior to irradiation (whole body, 2 Grey)
# Experimental: In this model of emesis the onset of retching and vomiting occurs approximately 20 minutes after whole body irradiation (2 Grey=200 Rads). The test compound is administered (e.g. i.p, p.o., i.v., s.c) immediately after irradiation and its effect on emesis determined by comparison with appropriate controls. […] Alternatively, the test compounds may be administered before irradiation or before treatment with an emetogen, for example 1.5, 3 or 6 hours before irradiation.
compound,measurement,value
"CCOc1ccc(-n2nnnc2C(F)(F)F)cc1CN[C@H]1CCCN[C@H]1c1ccccc1.Cl.Cl [Example 1, [2-Ethoxy-5(5-trifluoromethyl-tetrazol-1-yl)-benzyl]-([2S,3S]-2-phenylpiperidine-3-yl)amine dihydrochloride]",inhibition of radiation-induced emesis,inhibited radiation-induced emesis
